According to patent US9539321B2, “HMGB1-derived peptides enhance immune response to antigens” (The Regents of the University of California, priority 2010, dated 2017):
Entries after “also recorded” stand apart in the source; their conditions may differ. Read-outs that look alike come from different tables or passages of the source. Each block holds one compound with its values, some of them ahead of it. Where a SMILES comes first, the peptide text is derived from it. The star is where a group is joined. Biotin = O=C1N[C@H]2[C@H](CS[C@H]2CCCCC(=O)*)N1

How the values were obtained:
[1] = test system: p-IRF3 in RAW 264.7 macrophages; test: Immunoblotting for phospho-IRF3; assay type: cell-based, mouse; conditions: Dynasore 80 μM pre-treatment
J774 macrophages [2] = test: Uptake of Cp488-labeled Hp91 by macrophages, flow cytometry; assay type: cell-based, mouse; conditions: Dynasore 80 μM, Cp488-labeled Hp91 200 μg ml^−1
J774 macrophages [3] = assay type: cell-based, mouse
[4] = Adverse effects of tested doses in mice; assay type: in vivo
Immature human DCs [5] = test: Peptide binding/uptake by flow cytometry; conditions: for uptake by DCs: biotinylated peptide 200 μg ml^−1, 30 minutes, 37° C.
Immature human DCs [6] = test: Stimulation of DCs, IL-6 by ELISA; assay type: cell-based; conditions: for effect of inhibitor pre-treatment on Hp91-induced IL-6 secretion: SB203580 5 or 20 μM, PD98059 20 μM, TPCK 20 μM, 48 h
[7] = test system: antigen-specific IFN-γ secreting T cells; test: IFN-γ ELISPOT of splenocytes from immunized mice; assay type: in vivo, C57BL/6 mice; conditions: for number of antigen-specific IFNγ-secreting T cells compared to PBS: equimolar peptide with SIINFEKL peptide
Description: Female C57BL/6 mice 8-12 weeks of age were used for most experiments. All mice were purchased from Charles River Laboratories (Boston, Mass., USA) and housed at the Moores UCSD Cancer Center animal facility. All animal studies were approved by the Institutional Animal Care and Use Committee of UCSD and were perfolined in accordance with the institutional guidelines. For most experiments, mice were immunized s.c. with 50 μg of SIINFEKL (OVA-I) peptide (SEQ ID NO: 45) and 50 μg of ISQAVHAAHAEINEAGR (OVA-II) peptide (SEQ ID NO: 46). The OVA peptide was co-administered with either Hp91 (30 to 500 μg) or PBS (negative control). For some experiments, a protein vaccine group was included, wherein 500 μg of Hp91 was co-administered with 100 μg of LPS-free OVA protein. As a positive control, mice were immunized s.c. with OVA peptide(s) or protein in Incomplete Freund's Adjuvant “IFA” (Sigma-Aldrich, St. Louis, Mo., USA). If not otherwise indicated, mice were immunized and boosted two weeks later and spleens and blood were collected 10-14 days after the final immunization.
Single cell suspensions of splenocytes were prepared by mechanical disruption and separation through a 70 μm nylon cell strainer (BD Biosciences, Franklin Lakes, N.J., USA). Red blood cells were lysed using ammonium chloride buffer (Roche Diagnostics, Indianapolis, Ind., USA) and the splenocytes were subsequently resuspended in complete medium (RPMI 1640 with 10% FBS, L-glutamine, penicillin, streptomycin, and HEPES). in some experiments, CD4+ and CD8+ cells were depleted from bulk splenocyte populations using anti-CD4 or anti-CD8α conjugated microbeads (Miltenyi-Biotec, Auburn, Calif., USA) according to the manufacturer's instructions.
Freshly isolated splenocytes were plated in duplicate to wells of a nitrocellulose bottom enzyme-linked immunospot (ELISPOT) plate (Millipore, Millerica, Mass., USA) that had been previously coated overnight with 5 μg ml^−1 monoclonal anti-mouse IFN-γ antibody (Mabtech, Stockholm, Sweden). Splenocytes were cultured overnight at 37° C. with 2.5 μg ml^−1 SIINFEKL (OVA-I) peptide, 2.5 μg ml^−1 ISQAVHAAHAEINEAGR (OVA-II) peptide, or left unstimulated (medium only). After 18 h, culture supernatants were collected for cytokine analysis and ELISPOT plates were developed using 1 μg ml^−1 biotinylated anti-mouse IFN-γ antibody (Mabtech), Streptavidin-HRP (Mabtech), and TMB Substrate (Mabtech). The plate was scanned and the spots were counted using an automated ELISpot Reader System (CTL ImmunoSpot, Shaker Heights, Ohio, USA).
Mice were immunized s.c. with 50 μg of SIINFEKL peptide. The SIINFEKL peptide was co-administered with either PBS, Hp91 (250 μg), or scrambled Hp91 (250 μg). Peptides were dissolved in PBS for all immunizations, Mice were boosted two weeks later and spleens and blood were collected one week after the final immunization. Single cell suspensions of splenocytes were prepared by mechanical disruption and separation through a […] nylon cell strainer (BD Biosciences). Red blood cells were lysed using ammonium chloride buffer (Roche Diagnostics, Indianapolis, Ind.) and the splenocytes were subsequently resuspended in RPMI 1640 medium (Invitrogen) supplemented with 10 mmol HEPES (GIBCO-BRL), penicillin (100 U/mL)—streptomycin (100 μg/mL)—glutamine (2 mM) (GIBCO-BRI.), arid 5% (vol/vol) fetal calf serum (Omega).
Freshly isolated splenocytes were plated in duplicate to wells of a nifrocellulose bottom enzymelinked immunospot (ELISPOT) plate (Millipore, NAillerica, Mass., USA) that had been previously coated overnight with 5 μg ml^−1 monoclonal anti-mouse IFN-γ antibody (Mabtech, Stockholm, Sweden). Splenocytes were cultured overnight at 37° C., with 2.5 μg ml^−1 SIINFEKL peptide, 5 μg ml^−1 concanavalin A positive control (Sigma), or left unstimulated (medium only). […]

Circular dichroism = assay type: physicochemical; conditions: 75%/25% TFE/H2O, 200 μg ml^−1
Description: CD spectra of peptides, dissolved in 75%/25% Trifluoroethanol (TFE, Sigma)/H2O (vol/vol), were collected on an AVIV model 202 Circular Dichroism Spectrometer, under nitrogen, using a 1 mm pathlength quartz cuvette. These spectra were corrected by subtraction of a “solvent-only” spectrum and smoothed. The spectra are shown in mean residue ellipticity (θmrw). Peptides were analyzed at 200 μg ml^−1.

splenocytes = test: IL-2 / IL-4 secretion of splenocytes from immunized mice by ELISA; assay type: in vivo, C57BL/6 mice
Description: Splenocytes were cultured overnight with 2.5 μg ml^−1 OVA-I peptide, 2.5 μg ml^−1 OVA-II peptide, 5 μg ml^−1 concanavalin A positive control (Sigma), or left unstimulated (media only). After 18 h, cell culture supernatants were collected and analyzed for the presence of IL-2 and IL-4 by ELISA (eBioscience).
(§1) To measure cytokine release from immunized mice, splenocytes were cultured overnight with 2.5 μg ml^−1 SINFEKI: peptide, 5 μg ml^−1 concanavalin A positive control (Sigma), or left unstimulated (medium only). After 18 h, cell culture supernatants were collected and analyzed for the presence of IL-2 by ELISA. (eBioscience).
as §1, with “SIINFEKL” for “SINFEKI:”, “(media” for “(medium”, “ELISA” for “ELISA.”

B16 melanoma cells = test: Prophylactic B16 tumor challenge
Immature human DCs [8] = test: Confocal microscopy of peptide binding/uptake; assay type: cell-based; conditions: even after 30 minutes at 37° C.
Description: Immature human DCs (10^5) were pre-cooled on ice and subsequently incubated for 30 minutes on ice in culture medium with biotinylated Hp91 or Hp121 to allow peptide binding. Cells were washed and then incubated for the indicated time at 37° C. Cells were cytospun (Shandon Cytospin 2 centrintge) onto glass slides, fixed, pernieabiiized with acetone, and stained with Streptavidin-Alexa 488 (Invitrogen) to visualize biotinylated peptides and Hoechst 33258 DNA stain (Invitrogen). Cells were imaged on a Zeiss LSM confocal microscope.

mouse BM-DCs = test: Stimulation of mouse BM-DCs, IL-6 by ELISA; assay type: cell-based
Immature human DCs [9] = conditions: cited from earlier work
[10] = biotinylated, 90 μM, 30 minutes 37° C.

Compound: O=C(N/N=C/c1ccc(O)c(O)c1)c1cc2ccccc2cc1O [Dynasore]
effect on Hp91-induced phosphorylation of IRF3 [1]: reduced the phosphorylation of IRF3 | effect on uptake of Hp91 (J774 macrophages [2]): significantly inhibited uptake | effect of inhibitor pre-treatment on Hp91-induced IL-6 secretion (J774 macrophages [3]): significantly reduced

Compound: CC(C)C[C@H](NC(=O)[C@H](Cc1ccccc1)NC(=O)[C@H](Cc1ccccc1)NC(=O)[C@H](C)NC(=O)[C@H](CO)NC(=O)[C@@H]1CCCN1C(=O)[C@@H]1CCCN1C(=O)[C@H](CCCNC(=N)N)NC(=O)[C@H](CCCCN)NC(=O)[C@@H]1CCCN1C(=O)[C@H](C)NC(=O)[C@H](CC(N)=O)NC(=O)[C@@H]1CCCN1C(=O)[C@H](CC(=O)O)NC(=O)CCCC[C@@H]1SC[C@@H]2NC(=O)N[C@@H]21)C(=O)N[C@@H](Cc1ccccc1)C(=O)N[C@@H](CS)C(=O)N[C@@H](CO)C(=O)N[C@@H](CCC(=O)O)C(=O)O [Hp91, DPNAPKRPPSAFFLFCSE] (Biotin-DPNAPKRPPSAFFLFCSE-OH)
adverse effects [4]: no adverse effects

Compound: C/C1=C/C(=O)O[C@@H]2C[C@@H](CC[C@H](C)/C=C\CC1)O[C@@](O)([C@@H]1CSC(=O)N1)C2 [Latrunculin B]
effect of inhibitor pre-treatment on uptake of biotinylated Hp91 (Immature human DCs [5]): did not significantly reduce | uptake of Dextran FITC (Immature human DCs [5]): completely abrogating

Compound: COc1cccc(-c2cc(=O)c3ccccc3o2)c1N [PD98059]
effect of inhibitor pre-treatment on Hp91-induced IL-6 secretion (Immature human DCs [6]): failed to significantly reduce

Compound: C[S+]([O-])c1ccc(-c2nc(-c3ccncc3)c(-c3ccc(F)cc3)[nH]2)cc1 (stereo not drawn) [SB203580]
effect of inhibitor pre-treatment on Hp91-induced IL-6 secretion (Immature human DCs [6]): significantly reduced | effect of inhibitor pre-treatment on Hp91-induced IL-6 secretion (J774 macrophages [3]): significantly lowered

Compound: [N-]=[N+]=[N-] [Sodium azide, sodium azide]
inhibition at 10000 µM (Immature human DCs [5]; Homo sapiens, read-out: inhibition of Hp91 uptake): ~40%

Compound: N=C(N)NC(=O)c1nc(Cl)c(N)nc1N [amiloride]
effect of inhibitor pre-treatment on uptake of biotinylated Hp91 (Immature human DCs [5]; 30 minutes pre-treatment, PAO 2 μM, CP 100 μM, NY 20 μM, AM 2 mM): failed to significantly reduce

Compound: CN(C)CCCN1c2ccccc2Sc2ccc(Cl)cc21 [chlorpromazine]
effect of inhibitor pre-treatment on Hp91-induced IL-6 secretion (J774 macrophages [3]): no reduction | effect of inhibitor pre-treatment on uptake of biotinylated Hp91 (Immature human DCs [5]): significantly reduced

Compound: C[C@@H]1[C@H](O)[C@@H](C)/C=C/C=C/CC/C=C/C=C/C=C/C=C/C(O[C@H]2O[C@H](C)[C@@H](O)[C@H](N)[C@@H]2O)CC2O[C@](O)(CC(O)C(O)CCC(O)CC(O)CC(O)CC(=O)O[C@H]1C)CC(O)C2C(=O)O (stereo partly drawn) [nystatin]
effect of inhibitor pre-treatment on uptake of biotinylated Hp91 (Immature human DCs [5]): failed to significantly reduce

endocytosis by DCs (Immature human DCs [5]; [10]): failed to be endocytosed
Compound: APKRPPSA (UC411 peptide)

Compound: ASLAPPFPNCFDPKSREF (scrambled Hp91 peptide)
uptake by DCs (Immature human DCs [5]): much lesser extent than Hp91; also recorded: not taken up | antigen-specific immune response (IFN-γ ELISPOT, IL-2) ([7]; 250 μg with SIINFEKL peptide, compared to Hp91): failed to mount an antigen-specific immune response

endocytosis by DCs (Immature human DCs [5]; [10]): failed to be endocytosed
Compound: DPNAPKRP (UC18 peptide)
secondary structure from CD spectrum (Circular dichroism): polyproline II helix

Compound: N-tosyl-L-phenylalanine chloromethyl ketone [TPCK]
effect of inhibitor pre-treatment on Hp91-induced IL-6 secretion (Immature human DCs [6]): significantly reduced | effect of inhibitor pre-treatment on Hp91-induced IL-6 secretion (J774 macrophages [3]): significantly lowered

endocytosis by DCs (Immature human DCs [5]; [10]): failed to be endocytosed
Compound: RPPSAFFL (UC714 peptide)
IFNγ-secreting T cells relative to full-length Hp91 peptide ([7]; equimolar doses): 50% | number of antigen-specific IFNγ-secreting T cells compared to PBS [7]: moderate increases

Compound: RPPSAFFLFCSE (UC718 peptide)
IL-6 / cytokine secretion from DCs (Immature human DCs [6]; short peptides, 48 hours): induces cytokine release from DCs

Compound: SAFFLFCSE [UC1018]
IL-2 level relative to Hp91 controls (splenocytes; equimolar doses): 4 fold | IL-2 (splenocytes; immunized with SIINFEKL peptide and peptide adjuvant): significantly enhanced | secondary structure from CD spectrum (Circular dichroism): alpha helix | tumor formation and tumor growth vs PBS group (B16 melanoma cells; 142 μg with apoptotic B16 cells, significant as early as 11 days post challenge): delay in tumor formation and slowing of tumor growth | mice tumor-free and alive (B16 melanoma cells; at 75 days post tumor challenge): 60% | uptake by DCs compared to Hp91 controls (Immature human DCs [5]; [10]): over 3 fold | adjuvant strength in vivo relative to Hp91, by IFN-γ ELISPOT and IL-2 cytokine release ([7]; discussion statement): 3 fold | IFNγ ELISPOT immune response relative to Hp91 positive control ([7]; equimolar doses): 4 fold | number of antigen-specific IFNγ-secreting T cells compared to PBS [7]: significant increase

detection within DCs (Immature human DCs [8]): not detected | uptake by DCs (Immature human DCs [5]): not taken up
Compound: SIGDVAKKLGEMWNNTAA (Hp121 peptide)
activation of mouse BM-DCs in vitro (mouse BM-DCs): does not cause activation | activation of human DCs in vitro (Immature human DCs [9]): does not cause activation | number of INF-γ secreting cells ([7]; s.c. with OVA-I peptide, 250 μg peptide, freshly isolated and expanded splenocytes, vs PBS/OVA-I): No significant increase
